Usually logP stands for a log measure of how a compound divides between an organic and an aqueous phase. A word on the MIC: it is the least concentration at which growth counts as inhibited. One may read the Papp as the rate of passage across a membrane or cell layer, normalised by area and donor concentration. A lower Papp goes with poor permeation. In general, CC50 refers to the concentration at which the toxic effect on the cells reaches its halfway point. High values mean lower toxicity to the cells, low ones greater toxicity to the cells. In general, log P refers to the decadic logarithm of the partition coefficient of the neutral form, usually between octanol and water. Low readings indicate lower lipophilicity, high ones higher lipophilicity.

Here are results for 14 compounds from article PMC7765321, “Novel Isoniazid-Carborane Hybrids Active In Vitro against Mycobacterium tuberculosis” (Pharmaceuticals, 2020).

One data set concerns Mtb H37Rv strain. The data set can be described thus: microbe, parasite or virus in culture. In kind it is cell-based. Conditions: for MIC50: concentration exhibiting 50% inhibition of mycobacterial growth; for MIC50 / MIC99: wild-type Mtb H37Rv, 96 h; for MIC99: concentration exhibiting 99% inhibition of mycobacterial growth.
Data set [1] in a line: Partition (P) and distribution (D) coefficient, shake-flask octan-1-ol/water or PBS.
Another data set has as its system Mtb. Further details: method as in PMID 28390957. Conditions: against Mtb; cited from earlier work.
Another data set is described as follows: in vitro. The settings on record: PAMPA, pH 7.4.
Data set [2] is described as follows: Determination of the CC50 value (MTT assay). Conditions: human, HaCaT cells (immortalized keratinocytes). For orientation: Tetrazolium dyes change colour on reduction, which living cells bring about.
For data set [3] the following is noted: for permeation compared to INH (4): PAMPA; for PAMPA log Pe: PBS pH 7.4, 18 h, RT, Pe in cm/s. For orientation: In PAMPA a lipid-coated filter parts donor from acceptor wells.
Data set [4] concerns HaCaT cells.
For data set [5], the system named is HaCaT cells. The settings on record: 24 h at MIC50 and MIC99 values for the Mtb strain.
Data set [6] concerns HaCaT cells. This is another data set of the same source.
Where [7] appears, read: octan-1-ol/water, shake-flask, RT.

≈ marks a conversion by molar mass, not a printed value.

Turning to “1,12-dicarba-closo-dodecaborane-1-carboxylic acid hydrazide [Compound 3]”, the “growth inhibition of Mtb” value in the data set with Mtb H37Rv strain (at 75 µg/mL (0.37 mM)) is on record as “not considerably inhibited”.

With `NNC(=O)c1ccncc1` [4 (INH), pyridine-4-carbohydrazide, reference compound], in data set [1] (octan-1-ol/water), the logP at 0.5 h is -1 ± 0.09. For the same compound, the MIC with Mtb was 0.20 µg/mL (≈ 1.46 µM). In the data set with Mtb H37Rv strain (Mycobacterium tuberculosis), this compound gave an MIC50 of 0.073 µM (≈ 0.01 µg/mL) and an MIC99 of 0.36 µM (≈ 0.0494 µg/mL). In addition, in “in vitro”, the Papp at 18 h was 0.617 ×10⁻⁶ cm/s. Besides, the midpoint of cytotoxicity in [2], the CC50, lay at 725.8 ± 2.36 µM.

Regarding “N′-((1,2-dicarba-closo-dodecaboran-1-yl)ethyl)isonicotinohydrazide [Compound 23]”, the “log P” value in [1] (setting [7]) amounted to 0.64 ± 0.09. Besides, in [3], the “permeation compared to INH (4)” value is “two orders of magnitude higher” and the “PAMPA log Pe” value is recorded as −4.16 ± 0.05. Further, in the data set with Mtb H37Rv strain, the MIC50 is listed as 1.60 µM and the MIC99 was 4.90 µM. In the data set on HaCaT cells [4], this compound showed a CC50 of 86.5 ± 4.59 µM.

For “N′-((1,2-dicarba-closo-dodecaboran-1-yl)ethylidene)isonicotinohydrazide [Compound 20]”, the “log P” value in data set [1] (setting [7]) is listed as 1.26 ± 0.22. Moreover, in data set [3], the “permeation compared to INH (4)” value is “one order of magnitude higher” and the “PAMPA log Pe” value is reported as −5.05 ± 0.09. For the same compound, in the data set with Mtb H37Rv strain, the MIC50 amounted to 0.082 µM and the MIC99 is on record as 1.60 µM. For the same compound, in the data set on HaCaT cells [4], half-maximal cytotoxicity (CC50) was put at 81.5 ± 7.23 µM.

Regarding “N′-((1,2-dicarba-closo-dodecaboran-1-yl)propanoyl)isonicotinohydrazide [Compound 8]”, in data set [1] (setting [7]), the “log P” value was 0.67 ± 0.07. This compound also yielded an apoptotic/necrotic cells in the data set with HaCaT cells [5] of 16.45%. Further, in [3], the “permeation compared to INH (4)” value is “two orders of magnitude higher” and the “PAMPA log Pe” value is recorded as −4.98 ± 0.12. In the data set with Mtb H37Rv strain, this compound yielded an MIC50 of 44.70 µM and an MIC99 of 100 µM. The CC50 in the data set on HaCaT cells [4] was 86.6 ± 3.63 µM. For the same compound, in the data set with HaCaT cells [6] (24 h at concentration consistent with MIC99 for wild-type Mtb), the “viable cells (MTT)” value worked out at 50%.

As for “N′-((1,7-dicarba-closo-dodecaboran-1-yl)ethyl)isonicotinohydrazide [Compound 24]”, the “log P” value in data set [1] (setting [7]) is on record as 0.66 ± 0.08. Further, in data set [3], the “permeation compared to INH (4)” value is reported as “two orders of magnitude higher” and the “PAMPA log Pe” value is −4.85 ± 0.06. In the data set on Mtb H37Rv strain, this compound registered an MIC50 of 0.81 µM and an MIC99 of 3.25 µM. Further, the CC50 in the data set on HaCaT cells [4] was 105 ± 6.13 µM.

As for “N′-((1,7-dicarba-closo-dodecaboran-1-yl)ethylidene)isonicotinohydrazide [Compound 21]”, the “log P” value in data set [1] (setting [7]) was determined as 1.66 ± 0.18. Also, in [3], the “permeation compared to INH (4)” value is “two orders of magnitude higher” and the “PAMPA log Pe” value is −4.40 ± 0.10. For the same compound, in the data set with Mtb H37Rv strain, the MIC50 turned out to be 0.16 µM and the MIC99 is on record as 0.82 µM. In the data set with HaCaT cells [4], it took 78.23 ± 0.71 µM to reach half-maximal cytotoxicity (CC50).

As to “N′-((1,7-dicarba-closo-dodecaboran-1-yl)methylidene)isonicotinohydrazide [Compound 14]”, in data set [1] (setting [7]), the “log P” value amounted to 2.03 ± 0.09. In data set [3], the “permeation compared to INH (4)” value was “two orders of magnitude higher” and the “PAMPA log Pe” value is on record as −4.06 ± 0.09. Moreover, in the data set on Mtb H37Rv strain, the MIC50 is listed as 0.86 µM and the MIC99 stood at 3.40 µM. This compound displayed a half-maximal cytotoxic concentration (CC50) in the data set with HaCaT cells [4] of 131 ± 3.46 µM.

In the case of “N′-((1,7-dicarba-closo-dodecaboran-1-yl)propanoyl)isonicotinohydrazide [Compound 9]”, in data set [1] (setting [7]), the “log P” value is reported as 1.11 ± 0.11. For the same compound, in [3], the “permeation compared to INH (4)” value is listed as “one order of magnitude higher” and the “PAMPA log Pe” value is on record as −5.09 ± 0.07. In the data set on Mtb H37Rv strain, this compound had an MIC50 of 22.40 µM and an MIC99 of 74.50 µM. Besides, the CC50 in the data set on HaCaT cells [4] stood at 290.6 ± 1.45 µM. In addition, the “cytotoxicity / cell viability (MTT)” value in the data set on HaCaT cells [6] (24 h at MIC50 and MIC99 values for the ΔkatG strain) was “did not cause severe cytotoxicity”.

Turning to “N′-((1,12-dicarba-closo-dodecaboran-1-yl)ethyl)isonicotinohydrazide [Compound 25]”, the “log P” value in [1] (setting [7]) came out at 1.15 ± 0.14. For the same compound, in [3], the “permeation compared to INH (4)” value was “two orders of magnitude higher” and the “PAMPA log Pe” value is listed as −4.37 ± 0.04. In the data set on Mtb H37Rv strain, this compound returned an MIC50 of 0.32 µM and an MIC99 of 6.50 µM.

With “N′-((1,12-dicarba-closo-dodecaboran-1-yl)ethylidene)isonicotinohydrazide [Compound 22]”, in data set [1] (setting [7]), the lipophilicity (log P) was determined as 1.30 ± 0.07. In addition, in data set [3], the “permeation compared to INH (4)” value is “two orders of magnitude higher” and the “PAMPA log Pe” value is reported as −4.13 ± 0.07. Also, in the data set with Mtb H37Rv strain, the MIC50 is 0.16 µM and the MIC99 is listed as 1.60 µM. Moreover, the CC50 in the data set on HaCaT cells [4] turned out to be 80.2 ± 3.81 µM.

For “N′-((1,12-dicarba-closo-dodecaboran-1-yl)methylidene)isonicotinohydrazide [Compound 15]”, in data set [1] (setting [7]), the “log P” value was determined as 2.28 ± 0.20. Besides, in data set [3], the “permeation compared to INH (4)” value is listed as “three orders of magnitude higher” and the “PAMPA log Pe” value was −3.90 ± 0.17. Further, in the data set on Mtb H37Rv strain, the MIC50 worked out at 10.30 µM and the MIC99 turned out to be 17.20 µM. In the data set on HaCaT cells [4], this compound showed a CC50 of 305 ± 6.11 µM.

Consider “N′-((1,12-dicarba-closo-dodecaboran-1-yl)propanoyl)isonicotinohydrazide [Compound 10]”, for which, in data set [1] (setting [7]), the “log P” value stood at 0.99 ± 0.07. In addition, in [3], the “permeation compared to INH (4)” value is given as “two orders of magnitude higher” and the “PAMPA log Pe” value was −4.65 ± 0.09. In the data set with Mtb H37Rv strain, this compound registered an MIC50 of 29.80 µM and an MIC99 of 74.50 µM. For the same compound, in the data set with HaCaT cells [4], it took 161 ± 3.89 µM to reach half-maximal cytotoxicity (CC50).

For “N′-((7,8-dicarba-nido-undecaboranyl)methylidene)isonicotinohydrazide [Compound 16]”, in data set [1] (octan-1-ol/PBS, shake-flask, RT), the “log D7.4” value is recorded as 0.67 ± 0.04. Besides, in data set [3], the “permeation compared to INH (4)” value is reported as “one order of magnitude higher” and the “PAMPA log Pe” value is reported as −5.05 ± 0.30. In the data set with Mtb H37Rv strain, this compound showed an MIC50 of 0.16 µM and an MIC99 of 0.33 µM. The same compound displayed a CC50 in the data set with HaCaT cells [4] of 249.4 ± 0.56 µM.
